{
  "source": "patent US10995359B2",
  "about": "“Method for determining drug-sensitive human cell lines by analysis method in which measurement of activity of two types of protein kinase is used” (NITTO BOSEKI CO., LTD., priority 2015, dated 2021)",
  "test_in_all_cases": "Drug sensitivity assay (cell growth test), sulforhodamine B",
  "format_in_all_cases": "cell-based",
  "key": {"DU4475 (IM) cells": {"system": "DU4475 (IM) cells", "conditions": "Homo sapiens, DU-4475, 72 hours, read-out: inhibition rate (%) by trametinib, classification by grid analysis", "description": "(§1) Cultured cells were treated with a MEK inhibitor and a PI3K inhibitor in various concentrations, and cell lines sensitive to MEK and PI3K were classified by calculating a cell growth inhibition rate. The culture method and analysis method are as follows.\n(§2) Thirteen types of cells used in the present study, HCC38 (BL1), MDA-MB-231 (MSL), DU4475 (IM), HCC1187 (IM), HCC1143 (BL1), HCC1395 (LAR), HCC1937 (BL1), MDA-MB-453 (LAR), HCC70 (BL2), HS578T (MSL), MDA-MB-157 (MSL) and MDA-MB-468 (BL1), were obtained from American type culture collection (ATCC), and SUM185PE (LAR) was obtained from ASTERAND BIOSCIENCE. All the cells belong to triple negative breast cancer (TNBC), and it is known which of six types (BL1, BL2, M, MSL, IM and LAR) these belong to by an existing classification method.\n(§3) All the cells were cultured in a medium designated from a source of supply, and 2 mM L-glutamine and 10% fetal bovine serum (FBS) were supplemented.\n(§4) Each type of cells was seeded in a 96 well titer plate at 1×10^4 cells/well, and trametinib, an MEK inhibitor (Medchem Express; 0.08, 0.16, 0.31, 0.63, 1.25, 2.5, 5, 10 and 20 μM), and wortmannin, a PI3K inhibitor (Wako Pure Chemical Industries, Ltd.; 0.08, 0.16, 0.31, 0.63, 1.25, 2.5, 5, 10 and 20 μM) were dissolved in Dimethyl Sulfoxide [DMSO] (Wako Pure Chemical Industries, Ltd.) in various concentrations and treated. In addition, the effect on cell growth was examined at 72 hours after the inhibitor by sulforhodamine B assay (manufactured by SIGMA-ALDRICH), and 50 μL of sulforhodamine B solution was added to each well and cells were left at room temperature for an hour for staining. The staining degree of metabolically survival cells was examined by monitoring absorbance at a wavelength of 565 nm using a microtiter plate. The absorbance of cells which were not treated with trametinib and wortmannin (treated with DMSO) was used as a control and defined as 100% to calculate a cell growth inhibition rate.\n(§5) The cell lines were classified into 4 types, cell lines sensitive to wortmannin (hereinafter, PA), cell lines sensitive to trametinib (hereinafter, MA), cell lines resistant to wortmannin and trametinib (hereinafter, R), and others (hereinafter, S). In the classification, first the inhibition rate of each drug was calculated in a concentration of 1 μM, and the inhibition rate (%) by trametinib and the inhibition rate (%) by wortmannin were plotted on the X axis and Y axis respectively on a graph.\nas §5, with “100 nM,” for “1 μM,”\nas §5, with “10” for “1”, “graph. Using a 50% growth inhibition rate as an index of the inhibitive effect of a drug, cells were classified into 4 types by grid analysis.” for “graph.”"}, "HCC1187 (IM) cells": {"system": "HCC1187 (IM) cells", "conditions": "Homo sapiens, 72 hours, read-out: inhibition rate (%) by trametinib, classification by grid analysis", "description": "as §1, §2, §3, §4, §5\nas §5, with “100 nM,” for “1 μM,”\nas §5, with “10” for “1”, “graph. Using a 50% growth inhibition rate as an index of the inhibitive effect of a drug, cells were classified into 4 types by grid analysis.” for “graph.”"}, "HCC1395 (LAR) cells": {"system": "HCC1395 (LAR) cells", "conditions": "Homo sapiens, 72 hours, read-out: inhibition rate (%) by trametinib, classification by grid analysis", "description": "as §1, §2, §3, §4, §5\nas §5, with “100 nM,” for “1 μM,”\nas §5, with “10” for “1”, “graph. Using a 50% growth inhibition rate as an index of the inhibitive effect of a drug, cells were classified into 4 types by grid analysis.” for “graph.”"}, "HCC38 (BL1) cells": {"system": "HCC38 (BL1) cells", "conditions": "Homo sapiens, 72 hours, read-out: inhibition rate (%) by trametinib, classification by grid analysis", "description": "as §1, §2, §3, §4, §5\nas §5, with “100 nM,” for “1 μM,”\nas §5, with “10” for “1”, “graph. Using a 50% growth inhibition rate as an index of the inhibitive effect of a drug, cells were classified into 4 types by grid analysis.” for “graph.”"}, "HCC70 (BL2) cells": {"system": "HCC70 (BL2) cells", "conditions": "Homo sapiens, 72 hours, read-out: inhibition rate (%) by trametinib, classification by grid analysis", "description": "as §1, §2, §3, §4, §5\nas §5, with “100 nM,” for “1 μM,”\nas §5, with “10” for “1”, “graph. Using a 50% growth inhibition rate as an index of the inhibitive effect of a drug, cells were classified into 4 types by grid analysis.” for “graph.”"}, "HS578T (MSL) cells": {"system": "HS578T (MSL) cells", "conditions": "Homo sapiens, Hs-578T, 72 hours, read-out: inhibition rate (%) by trametinib, classification by grid analysis", "description": "as §1, §2, §3, §4, §5\nas §5, with “100 nM,” for “1 μM,”\nas §5, with “10” for “1”, “graph. Using a 50% growth inhibition rate as an index of the inhibitive effect of a drug, cells were classified into 4 types by grid analysis.” for “graph.”"}, "MDA-MB-231 (MSL) cells": {"system": "MDA-MB-231 (MSL) cells", "conditions": "Homo sapiens, 72 hours, read-out: inhibition rate (%) by trametinib, classification by grid analysis", "description": "as §1, §2, §3, §4, §5\nas §5, with “100 nM,” for “1 μM,”\nas §5, with “10” for “1”, “graph. Using a 50% growth inhibition rate as an index of the inhibitive effect of a drug, cells were classified into 4 types by grid analysis.” for “graph.”"}, "MDA-MB-453 (LAR) cells": {"system": "MDA-MB-453 (LAR) cells", "conditions": "Homo sapiens, 72 hours, read-out: inhibition rate (%) by trametinib, classification by grid analysis", "description": "as §1, §2, §3, §4, §5\nas §5, with “100 nM,” for “1 μM,”\nas §5, with “10” for “1”, “graph. Using a 50% growth inhibition rate as an index of the inhibitive effect of a drug, cells were classified into 4 types by grid analysis.” for “graph.”"}, "MDA-MB-468 (BL1) cells": {"system": "MDA-MB-468 (BL1) cells", "conditions": "Homo sapiens, 72 hours, read-out: inhibition rate (%) by trametinib, classification by grid analysis", "description": "as §1, §2, §3, §4, §5\nas §5, with “100 nM,” for “1 μM,”\nas §5, with “10” for “1”, “graph. Using a 50% growth inhibition rate as an index of the inhibitive effect of a drug, cells were classified into 4 types by grid analysis.” for “graph.”"}},
  "data": [
    {"smiles": "CC(=O)Nc1cccc(-n2c(=O)n(C3CC3)c(=O)c3c(Nc4ccc(I)cc4F)n(C)c(=O)c(C)c32)c1", "note": "[trametinib]", "values": [
      {"measurement": "inhibition at 0.1 µM", "setting": "DU4475 (IM) cells; DU4475, 100 nM, index 12.5% growth inhibition rate", "value": "> 12.5", "unit": "%"},
      {"measurement": "inhibition at 1 µM", "setting": "DU4475 (IM) cells; DU4475, 1 μM, index 25% growth inhibition rate", "value": "> 25", "unit": "%"},
      {"measurement": "inhibition at 10 µM", "setting": "DU4475 (IM) cells; DU4475, 10 μM, index 50% growth inhibition rate", "value": "> 50", "unit": "%"},
      {"measurement": "inhibition at 0.1 µM", "setting": "HCC1187 (IM) cells; HCC1187, 100 nM, index 12.5% growth inhibition rate", "value": "> 12.5", "unit": "%"},
      {"measurement": "inhibition at 1 µM", "setting": "HCC1187 (IM) cells; HCC1187, 1 μM, index 25% growth inhibition rate", "value": "> 25", "unit": "%"},
      {"measurement": "inhibition at 10 µM", "setting": "HCC1187 (IM) cells; HCC1187, 10 μM, index 50% growth inhibition rate", "value": "> 50", "unit": "%"},
      {"measurement": "inhibition at 0.1 µM", "setting": "HCC1395 (LAR) cells; HCC1395, 100 nM, index 12.5% growth inhibition rate", "value": "< 12.5", "unit": "%"},
      {"measurement": "inhibition at 1 µM", "setting": "HCC1395 (LAR) cells; HCC1395, 1 μM, index 25% growth inhibition rate", "value": "< 25", "unit": "%"},
      {"measurement": "inhibition at 10 µM", "setting": "HCC1395 (LAR) cells; HCC1395, 10 μM, index 50% growth inhibition rate", "value": "< 50", "unit": "%"},
      {"measurement": "inhibition at 0.1 µM", "setting": "HCC38 (BL1) cells; HCC38, 100 nM, index 12.5% growth inhibition rate", "value": "> 12.5", "unit": "%"},
      {"measurement": "inhibition at 1 µM", "setting": "HCC38 (BL1) cells; HCC38, 1 μM, index 25% growth inhibition rate", "value": "> 25", "unit": "%"},
      {"measurement": "inhibition at 10 µM", "setting": "HCC38 (BL1) cells; HCC38, 10 μM, index 50% growth inhibition rate", "value": "> 50", "unit": "%"},
      {"measurement": "inhibition at 0.1 µM", "setting": "HCC70 (BL2) cells; HCC70, 100 nM, index 12.5% growth inhibition rate", "value": "> 12.5", "unit": "%"},
      {"measurement": "inhibition at 1 µM", "setting": "HCC70 (BL2) cells; HCC70, 1 μM, index 25% growth inhibition rate", "value": "> 25", "unit": "%"},
      {"measurement": "inhibition at 10 µM", "setting": "HCC70 (BL2) cells; HCC70, 10 μM, index 50% growth inhibition rate", "value": "> 50", "unit": "%"},
      {"measurement": "inhibition at 0.1 µM", "setting": "HS578T (MSL) cells; 100 nM, index 12.5% growth inhibition rate", "value": "< 12.5", "unit": "%"},
      {"measurement": "inhibition at 1 µM", "setting": "HS578T (MSL) cells; 1 μM, index 25% growth inhibition rate", "value": "< 25", "unit": "%"},
      {"measurement": "inhibition at 10 µM", "setting": "HS578T (MSL) cells; 10 μM, index 50% growth inhibition rate", "value": "< 50", "unit": "%"},
      {"measurement": "inhibition at 0.1 µM", "setting": "MDA-MB-231 (MSL) cells; MDA-MB-231, 100 nM, index 12.5% growth inhibition rate", "value": "> 12.5", "unit": "%"},
      {"measurement": "inhibition at 1 µM", "setting": "MDA-MB-231 (MSL) cells; MDA-MB-231, 1 μM, index 25% growth inhibition rate", "value": "> 25", "unit": "%"},
      {"measurement": "inhibition at 10 µM", "setting": "MDA-MB-231 (MSL) cells; MDA-MB-231, 10 μM, index 50% growth inhibition rate", "value": "> 50", "unit": "%"},
      {"measurement": "inhibition at 0.1 µM", "setting": "MDA-MB-453 (LAR) cells; MDA-MB-453, 100 nM, index 12.5% growth inhibition rate", "value": "> 12.5", "unit": "%"},
      {"measurement": "inhibition at 1 µM", "setting": "MDA-MB-453 (LAR) cells; MDA-MB-453, 1 μM, index 25% growth inhibition rate", "value": "> 25", "unit": "%"},
      {"measurement": "inhibition at 10 µM", "setting": "MDA-MB-453 (LAR) cells; MDA-MB-453, 10 μM, index 50% growth inhibition rate", "value": "> 50", "unit": "%"},
      {"measurement": "inhibition at 0.1 µM", "setting": "MDA-MB-468 (BL1) cells; MDA-MB-468, 100 nM, index 12.5% growth inhibition rate", "value": "< 12.5", "unit": "%"},
      {"measurement": "inhibition at 1 µM", "setting": "MDA-MB-468 (BL1) cells; MDA-MB-468, 1 μM, index 25% growth inhibition rate", "value": "< 25", "unit": "%"},
      {"measurement": "inhibition at 10 µM", "setting": "MDA-MB-468 (BL1) cells; MDA-MB-468, 10 μM, index 50% growth inhibition rate", "value": "< 50", "unit": "%"}
    ]}
  ]
}
